Results: ChEMBL document CHEMBL5360617, “C-2 Thiophenyl Tryptophan Trimers Inhibit Cellular Entry of SARS-CoV-2 through Interaction with the Viral Spike (S) Protein” (J Med Chem, 2023)

Key:
SARS-CoV-2 [1] = assay: (§1) Antiviral activity VSV-S pseudotyped SARS-CoV-2 Wuhan-Hu-1 harboring MN908947 mutant infected in human A549-ACE2 cells assessed as reduction in viral production at 10 uM preincubated with virus for 1 hrs followed by cell infection for 1 hrs and measured 24 hrs after replacement with fresh media with compound relative to control; assay type: functional, Severe acute respiratory syndrome coronavirus 2; set-up: scale not given: the % may be the effect or the level left; details: time 26 hrs
SARS-CoV-2 [2] = assay: as §1, with “Green monkey VeroE6/TMPRSS2” for “human A549-ACE2”; assay type: functional, Severe acute respiratory syndrome coronavirus 2; set-up: scale not given: the % may be the effect or the level left; details: time 26 hrs

| SMILES | Activity (SARS-CoV-2 [1]) [%] | Activity (SARS-CoV-2 [2]) [%] |
| --- | --- | --- |
| CCC(CC)COC(=O)[C@H](C)N[P@](=O)(OC[C@H]1O[C@@](C#N)(c2ccc3c(N)ncnn23)[C@H](O)[C@@H]1O)Oc1ccccc1 | >98 | >89 |
| NCCOCCOCCC(=O)NCC(=O)NC(CCC(=O)NC(Cc1c(Sc2ccc([N+](=O)[O-])cc2)[nH]c2ccccc12)C(=O)O)(CCC(=O)NC(Cc1c(Sc2ccc([N+](=O)[O-])cc2)[nH]c2ccccc12)C(=O)O)CCC(=O)NC(Cc1c(Sc2ccc([N+](=O)[O-])cc2)[nH]c2ccccc12)C(=O)O (stereo unspecified) | >98 | >89 |
| O=C(CCOCCOCCOCCOCCC(=O)NCC(=O)NC(CCC(=O)NC(Cc1c(Sc2ccc([N+](=O)[O-])cc2)[nH]c2ccccc12)C(=O)O)(CCC(=O)NC(Cc1c(Sc2ccc([N+](=O)[O-])cc2)[nH]c2ccccc12)C(=O)O)CCC(=O)NC(Cc1c(Sc2ccc([N+](=O)[O-])cc2)[nH]c2ccccc12)C(=O)O)NCC(=O)NC(CCC(=O)NC(Cc1c(Sc2ccc([N+](=O)[O-])cc2)[nH]c2ccccc12)C(=O)O)(CCC(=O)NC(Cc1c(Sc2ccc([N+](=O)[O-])cc2)[nH]c2ccccc12)C(=O)O)CCC(=O)NC(Cc1c(Sc2ccc([N+](=O)[O-])cc2)[nH]c2ccccc12)C(=O)O (stereo unspecified) | >98 | >89 |
